Data: patent US20150051273A1, “USE OF DELPHINIDIN AGAINST STAPHYLOCOCCUS AUREUS” (Sapiotec GmbH, priority 2012, published 2015)
“Also recorded” adds a separate entry of the source.

Tests used:
[1] = Solubility of delphinidin chloride in aqueous cyclodextrin solutions; format: physicochemical; conditions: pure water, cyclodextrin concentration 0; excess delphinidin chloride, 30° C., 20 h, dark, 0.22 μm filter
Procedure: In this example, the complexing of delphinidin by different cyclodextrins and the solubility of the complex in aqueous solution are investigated.
Neutral aqueous solutions were prepared, containing 10 wt % of the respective cyclodextrin.
5 ml each of the aqueous cyclodextrin solutions and of pure water were introduced into glass flasks. Then an excess of delphinidin chloride was added.
The suspensions were stirred in the dark at 30° C. for 20 h. This was followed by filtration through a membrane filter with a 0.22 μm pore size.

[2] = system: Klebsiella pneumoniae ATCC700603; assay: Bacterial growth, static model (visual evaluation, vitality test); format: cell-based; conditions: K. pneumoniae; RPMI-1640, 37° C., 48 hours
Source text: (§1) Klebsiella pneumoniae ATCC700603 biofilm-positive clinical isolate from urine from an ESBL+(Extended Spectrum Beta-Lactamase) hospital patient (reference strain);
(§2) Investigating the effect of delphinidin on the bacterial growth and the bacterial formation of biofilm took place by means of • a) visual evaluation of bacterial growth (static model), • b) vitality test (scrape on blood agar plates) • c) analysis of the biofilm in a static model by means of the crystal violet assay as described above in section 1.
(§3) The control used was sterile RPMI-1640. Then delphinidin in solution in RPMI-1640 was added, from a dilution series produced beforehand, and the cell culture dish was incubated at 37° C. for 48 hours, the visual outcome thereof being shown in FIG. 2. The color change from (phenol) red to yellow correlates with the extent of the bacterial growth.
(§4) Scrapes of the bacteria from the culture dish are shown in FIG. 3 (P. aeruginosa ATCC9027), 4 (K. pneumoniae ATCC700603), 5 (MRSA2318), 6 (MRSA2855) and 7 (MSSA1155). “ST 26.1.11” and “ST 28.1.11” in the case of the scrapes on the agar plates refers to the respective scraping date of the duplicated experiments.

[3] = system: Pseudomonas aeruginosa ATCC9027; assay: Biofilm formation, static model, crystal violet assay; format: cell-based; conditions: P. aeruginosa, RPMI-1640, 37° C., 48 hours
Procedure: (§5) The strains selected were as follows: • Pseudomonas aeruginosa ATCC9027, biofilm-positive clinical isolate from an outer ear infection (reference strain);
(§6) The growth and the analysis of the biofilm were determined in a static model by means of the crystal violet assay according to basic protocol 1 in Current Protocols in Microbiology 1B.1.2-1B.1.4 “MICROTITER PLATE BIOFILM ASSAY” [published online August 2011 in Wiley Online Library (wileyonlinelibrary.com) DOI: 10.1002/9780471729259. mc01b01s22].
as §2, with “1. […]” for “1.”
(§7) With the same experimental setup, the biofilm was analyzed by means of the crystal violet test as described above in section 1, the outcome thereof, after 48 hours of incubation and the crystal violet test, is shown overall in FIG. 8, and in FIGS. 9-13 in each case after measurement of the optical density, processed graphically for the respective delphinidin concentrations in the case of the individual bacterial strains (FIG. 9: P. aeruginosa ATCC9027, FIG. 10: K. pneumoniae ATCC700603, FIG. 11: MRSA2318, FIG. 12: MRSA2855, FIG. 13: MSSA1155).

[4] = Stability tests in aqueous solution (delphinidin content by HPLC); format: physicochemical; conditions: 0.9% NaCl solution, 37° C., dark, start 1.584 mg/ml (complex) or 0.0216 mg/ml (uncomplexed)
Procedure: The delphinidin chloride content of the delphinidin-containing solutions was determined using a reversed-phase HPLC technique similar to that already described above. The following reagents were employed here:
The solutions were prepared at room temperature and then stored in closed vials in the dark at 37° C.
The delphinidin content was determined after 1, 2, 3, and 4 h. The table below reports the content found, as a percentage of the abovementioned starting concentration.

[5] = system: Pseudomonas aeruginosa ATCC9027; assay: Bacterial growth, static model (visual evaluation, vitality test); format: cell-based; conditions: P. aeruginosa; RPMI-1640, 37° C., 48 hours
Source text: as §5, §2, §3, §4

[6] = system: Klebsiella pneumoniae ATCC700603; assay: Biofilm formation, static model, crystal violet assay; format: cell-based; conditions: K. pneumoniae, RPMI-1640, 37° C., 48 hours
Procedure: as §1
The growth and the analysis of the biofilm were determined in a static model by means of the crystal violet assay according to basic protocol 1 in Current Protocols in Microbiology 1B.1.2-1B.1.4 “MICROTITER PLATE BIOFILM ASSAY” [published online August 2011 in Wiley Online Library (wileyonlinelibrary.com) DOI: 10.1002/9780471729259. mc01b01s22]. […]
as §7

[7] = system: Staphylococcus aureus MRSA2318, MRSA2855, MSSA1155; assay: Bacterial growth, static model (visual evaluation, vitality test); format: cell-based; conditions: S. aureus (both MSSA and MRSA); RPMI-1640, 37° C., 48 hours
Source text: (§8) Staphylococcus aureus MRSA2318 biofilm-positive clinical isolate from tracheal secretion of 22.04.2009 (Würzburg University Hospital, neurosurgical clinic and polyclinic I, intensive therapy unit); • Staphylococcus aureus MRSA2855 biofilm-positive clinical isolate from blood culture of 22.04.2009 (Würzburg University Hospital, medical clinic and polyclinic I, ITU); • Staphylococcus aureus MSSA1155 biofilm-positive clinical isolate from 27.04.2004 from abdominal cavity scrape (Würzburg University clinic, urology, unit B).
as §2, §3
Scrapes of the bacteria from the culture dish are shown in FIG. 3 (P. aeruginosa ATCC9027), 4 (K. pneumoniae ATCC700603), 5 (MRSA2318), 6 (MRSA2855) and 7 (MSSA1155). […]

[8] = system: Staphylococcus aureus MRSA2318, MRSA2855, MSSA1155; assay: Biofilm formation, static model, crystal violet assay; format: cell-based; conditions: S. aureus (both MSSA and MRSA), RPMI-1640, 37° C., 48 hours
Source text: as §8, §6, §2
The control used was sterile RPMI-1640. […]

Compound	Delphinidin chloride (solubility achievable) [1]	Effect on growth [2]	Effect on formation of biofilm [3]	Delphinidin content as a percentage of the starting concentration ([4]; 0 h)	Delphinidin content as a percentage of the starting concentration ([4]; 1 h)	Delphinidin content as a percentage of the starting concentration ([4]; 2 h)	Delphinidin content as a percentage of the starting concentration ([4]; 3 h)	Delphinidin content as a percentage of the starting concentration ([4]; 4 h)	Effect on growth [5]	Effect on formation of biofilm [6]	Effect on growth [7]	Effect on formation of biofilm [8]
Oc1cc(O)c2cc(O)c(-c3cc(O)c(O)c(O)c3)[o+]c2c1.[Cl-] [Delphinidin chloride, delphinidin chloride]	70 µg/mL											
Oc1cc(O)c2cc(O)c(-c3cc(O)c(O)c(O)c3)[o+]c2c1 [Delphinidin]		no inhibiting effect	no inhibiting effect	100%	8.3%	6.5%	5.6%	5.1%	no inhibiting effect	no inhibiting effect; also recorded: appears still to be being stimulated	inhibiting effect	inhibiting effect
